What was measured:
[1] = tested on: T. cruzi trypomastigotes; test: Flow cytometry of apoptosis-like markers in trypomastigotes; assay type: cell-based, Trypanosoma cruzi; settings: 10 µM
Method: Apoptosis-like markers were analyzed by triple staining using 3,3′-dihexyloxacarbocyanine (DiOC6), propidium iodide (PI), and Hoechst from Thermo Fisher Scientific to determine the change of mitochondrial membrane potential (ΔΨm), cell membrane damage, and impairment of cell cycle, respectively. All readings were performed on a BD FACSCanto II 4/2/2 Sys IVD flow cytometer, and data obtained were analyzed using the FlowJo7.6.2 software. Differences between treatments were determined by a two-way ANOVA for multiple comparisons with 95% significance using GraphPad Prism 8. In all cases, 20 µL of parasites (5 × 10^6/mL) were stained per treatment with 300 µL of Hanks’ balanced saline solution (HBSS) and 10 µL of the staining mix containing […], 0.5 µL of 70 nM DiOC6, and 0.5 µL of 10 mg/mL Hoechst. Subsequently, parasites were incubated at room temperature for 15 min until reading.
The same markers mentioned above were used for T. cruzi trypomastigotes. A total of 1 × 10^6 trypomastigotes were centrifuged at 1800 RCF for 5 min to remove the culture medium. Parasites were cultured at […] in PBS or 10% FBS-supplemented DMEM with or without 10 µM UBMC-4, 10 µM chloroquine, and 10 µM UBMC-4/chloroquine for 2 h and 5 h. All experiments were compared to a culture setup using bz as control compound. Three biological replicates and three experimental replicates were applied to data collected at each time point for experimental conduction of every portion of the study. In all cases, ANOVA was applied for multiple comparisons after determining that data were normal.

[2] = Cytotoxicity, MTT method, HepG2; assay type: cell-based; settings: human, HepG2 cells, read-out: LC50 median lethal concentration HepG2
Method: (§1) Cytotoxicity of UBMC-4 was tested in HepG2, CaCo2, and huMDM cell lines according to the effect on cell growth determined by the MTT microenzimatic method, as described by others. Briefly, 2.0 × 10^4 U-937 and huMDM or 2.5 × 10^4 HepG2 and CaCo2 cells were dispensed in 200 µL into each well of a 96-well tissue culture plate containing the corresponding culture medium. Then, 100 µL/well of each compound at a concentration of […] were added and plates were incubated at 37 °C, 5% CO2. After 72 h of incubation, 20 μL of MTT (Sigma-Aldrich, St Louis, MO, USA) were added to each well and plates were incubated for 3 h at 37 °C, 5% CO2. […] The concentration of formazan was determined at 570 nm in a spectrophotometer (Varioskan Flash Multimode Reader, Thermo Scientific, Waltham, MA, USA). […] Cytotoxicity was determined according to the percentages of viability and cell growth inhibition obtained for each compound, bz, doxorubicin, or medium alone. Non-specific absorbance was corrected by subtracting the OD of the blank (culture medium). Percentages of mortality were calculated using equation, as follows: % mortality = 100 − [(O.D. of treated cells)/(O.D. of non-treated cells)] × 100. The half maximal effective concentration (EC50) was calculated by the linear regression model Probit using Graphpad Prism software.

[3] = tested on: T. cruzi Tulahuen strain amastigotes; test: Trypanocidal activity in intracellular amastigotes (β-galactosidase, U937 macrophages); assay type: cell-based, Trypanosoma cruzi
Method: To obtain intracellular amastigotes, 2.5 × 10^6 U937 differentiated macrophage cells were infected with T. cruzi epimastigotes (Tulahuen strain producing β-galactosidase, 24 h of growing) in a 5:1 parasite/cell ratio. To calculate EC50, 100 μL of UBMC-4 were added at four serial dilutions ([…]) to each well, and benznidazole (bz) was added at an initial concentration of 20 µg/mL and 6 serial 2-fold dilutions were used to determine its EC50 as a control of the effectiveness of the experiment, in addition to the control of the viability of the parasites (cells without drug treatment), from the blank of the culture medium (medium without cells), in duplicate. The cells were incubated for 72 h at 37 °C with 5% of CO2. All medium was removed and 100 µL of substrate for β-galactosidase diluted in PBS (chlorophenol β-d-galactopyranoside-CPRG network; Sigma-Aldrich, St Louis, MO, USA, at 100 mM and 0.1% Nonidet P-40) was added to each well and incubated at 37 °C for 3 h. The amount of chlorophenol red released was read at 570 nm in a spectrophotometer (Varioskan TM). Infected cells were used as negative control while infected cells treated with benznidazole were used as a positive control (trypanocidal activity) for the assay. RPMI-1640 medium was used as a negative control. Non-specific absorbance was corrected by subtracting the OD of the blank sample. Determinations were done in triplicate in at least two independent experiments.
The trypanocidal activity was determined based on the percentage of decrease of amastigotes determined using equation, as follows: % reduction of infection = 100 − (O.D. of treated infected cells)/(O.D. of non-treated infected cells) × 100. The half maximal effective concentration (EC50) was calculated by the linear regression model Probit using Graphpad Prism software.

[4] = Cytotoxicity, MTT method, CaCo2; assay type: cell-based; settings: human, Caco-2, read-out: LC50 median lethal concentration CaCo2
Method: as §1

[5] = Cytotoxicity, MTT method, huMDM; assay type: cell-based; settings: human, monocyte-derived macrophages (huMDM), read-out: LC50 median lethal concentration huMDM
Method: as §1

[6] = tested on: intracellular forms of Tulahuen strain; parameters: method as in Araujo-Lima et al. 2018 [44]; settings: ref Araujo-Lima et al. 2018 [44]; read-out: EC50 against intracellular forms of Tulahuen strain; cited from earlier work

SMILES | mitochondrial membrane potential change ([1]; normal nutrition conditions) | mitochondrial membrane potential change ([1]; nutritional stress conditions) | CC50 at 72 h [2] | selectivity index (SI) between huMDM and T. cruzi amastigotes ([3]; LC50 huMDM / EC50 amastigotes) | EC50 ([3]; Trypanosoma cruzi, TULAHUEN, U-937, 72 h, read-out: EC50 half maximal effective concentration for T. cruzi amastigotes) | CC50 at 72 h [4] | CC50 at 72 h [5] | EC50 [6]
CCN(CC)CCCC(C)Nc1ccnc2cc(Cl)ccc12 (centres unmarked) [chloroquine, reference compound] | no alteration in the mitochondrial membrane potential | hyperpolarization continued just as in the untreated controls | – | – | – | – | – | –
O=C(Cn1ccnc1[N+](=O)[O-])NCc1ccccc1 [Benznidazole, benznidazole, reference compound] | – | – | > 760 µM | > 655 | 1.16 ± 0.03 µM | > 760 µM | > 760 µM | 1.8 ± 0.7 µM

— publication PMC9229894, “In Silico, In Vitro, and Pharmacokinetic Studies of UBMC-4, a Potential Novel Compound for Treating against Trypanosoma cruzi” (Pathogens, 2022)
